According to patent EP0315861A1, “Antimycotic compositions of a nikkomycin compound and an antimycotic azole” (BAYER AG, priority 1987, dated 1989):

Legend:
[1] = tested on: Candida albicans-Strang B311; test: checkerboard in vitro synergy test (microtiter plates, growth inhibition endpoints, isobolograms); type: cell-based; details: combination with Nikkomycin versus azole alone
Excerpt: Um die Eignung von Nikkomycinen und Azolen hinsichtlich der synergistischen Wirkung zu testen, wurde ein schachbrettartiger in vitro-Versuch mit der Hefe Candida albicans durchgeführt.
Ein Candida albicans-Strang B311 wurde über Nacht in einer Glucose-Hefeextrakt-Kultur gezüchtet, gewaschen und auf die gewünschte Dichte gebracht.
Die Tests wurden in 96-Loch-Mikrotiterplatten durchgeführt, wobei man eine Hefestickstoffkultur mit Dextrose und Asparagin als Wachstumsmedium verwendete. Die Testmaterialien wurden gelöst, serienmässig verdünnt und dann in die geeigneten Löcher der Mikrotiterplatten überführt, so dass die Endkonzentrationen von 0,02 bis 1 mMol für die Nikkomycine, und 0,06 bis 64 µg für die Azole betrugen. Alle Löcher wurden mit 10.000 Organismen/ml (Endkonzentration) geimpft,und die Platten bei Raumtemperatur 48 Stunden lang inkubiert. Die Platten wurden dann ausgewertet,und die Wachstumsrate für jedes Loch festgestellt. Die Endpunkte wurden für jede Reihe als niedrigste Konzentration, die eine vollständige Inhibierung des Wachstums zeigte, bestimmt. Die Daten wurden als Isobologramme geplottet, die die Endpunkte für die einzelnen Verbindungen als auch die Endpunkte für die verschiedenen Kombinationen zeigten. […]

C. albicans = test: septic murine candidosis model, oral therapy; type: in vivo, CFW₁-Mäuse; details: for Zahl der überlebenden Tiere in den folgenden Tagen nach der Infektion: 2 x 100 mg/kg oral on the day of infection, 10 animals at day 0
Description: Wirksamkeit von Nikkomycin X und Z in dem Tiermodell von Murine candidosis.
Gezüchtete CFW₁-Mäuse wurden intravenös mit 6 x 10⁵ cfu von C. albicans infiziert. Die orale Therapie wurde gleichzeitig mit der Infektion gestartet. Die Mittel wurden einzeln mit Nährnadeln in Volumina von 0,5 ml ausgegeben.
In dem Modell der septischen Murine candidosis, das häufig zum Testen von Azolen verwendet wird, wird die Behandlung der Tiere gleichzeitig mit der Infektion gestartet, indem man 2 x 100 mg/kg beider Zubereitungen am Tag der Infektion verabreichte. Diese Verabreichungsweise erzeugt nur eine leichte Verzögerung in der lethalen Kinetik (Tabelle 1).

SMILES	Reduktion des Endpunktes für die Kombination hinsichtlich des Azolendpunktes [1]	Zahl der überlebenden Tiere in den folgenden Tagen nach der Infektion (C. albicans; day 3 after infection)	Zahl der überlebenden Tiere in den folgenden Tagen nach der Infektion (C. albicans; day 6 after infection)	Wirksamkeit (C. albicans; 14-day treatment, daily dose 2 x 10 mg/kg, Fig. 2)	Wirksamkeit (C. albicans; treatment period 3 days, 100 mg/kg, Fig. 1)
Clc1ccccc1C(c1ccccc1)(c1ccccc1)n1ccnc1 [Clotrimazol]	≥ 50 -fach	–	–	–	–
C[C@@H]([C@H](N)C(=O)N[C@H](C(=O)O)[C@H]1O[C@@H](n2cc(C=O)[nH]c2=O)[C@H](O)[C@@H]1O)[C@H](O)c1ccc(O)cn1 [Nikkomycin X]	–	10	3	–	–
C[C@@H]([C@H](N)C(=O)N[C@H](C(=O)O)[C@H]1O[C@@H](n2ccc(=O)[nH]c2=O)[C@H](O)[C@@H]1O)[C@H](O)c1ccc(O)cn1 [Nikkomycin Z]	–	6	5	wirksamer als 2 x 100 mg/kg	vergleichbar zu der von 25 mg/kg Ketoconazol oder Vibunazol
